SMILES	solubility (mole fraction) (in ethanol, 278 K)	solubility (mole fraction) (in ethanol, 283 K)	solubility (mole fraction) (in ethanol, 288 K)	solubility (mole fraction) (in ethanol, 293 K)	solubility (mole fraction) (in ethanol, 298 K)	solubility (mole fraction) (in ethanol, 303.2 K)	solubility (mole fraction) (in ethanol, 308 K)	solubility (mole fraction) (in ethanol, 313 K)	solubility (mole fraction) (in ethanol, 318 K)	solubility (mole fraction) (in ethanol, 323 K)	solubility (mole fraction) (in n-propanol, 278 K)	solubility (mole fraction) (in n-propanol, 283 K)	solubility (mole fraction) (in n-propanol, 288 K)	solubility (mole fraction) (in n-propanol, 293 K)	solubility (mole fraction) (in n-propanol, 298 K)	solubility (mole fraction) (in n-propanol, 303.1 K)	solubility (mole fraction) (in n-propanol, 308.2 K)	solubility (mole fraction) (in n-propanol, 313 K)	solubility (mole fraction) (in n-propanol, 318 K)	solubility (mole fraction) (in n-propanol, 323 K)	other results
O=S(=O)([N-]Cl)c1ccccc1.[Na+]	0.0164	0.0193	0.0224	0.0264	0.031	0.0364	0.0422	0.0486	0.0561	0.066	0.00195	0.00348	0.00536	0.00778	0.0106	0.0142	0.0188	0.0245	0.0307	0.0378	solubility (mole fraction) (in sec-butanol, 278 K): 0.00185; solubility (mole fraction) (in sec-butanol, 283 K): 0.00228; solubility (mole fraction) (in sec-butanol, 288 K): 0.00287; solubility (mole fraction) (in sec-butanol, 293 K): 0.00383; solubility (mole fraction) (in sec-butanol, 298.4 K): 0.00481; solubility (mole fraction) (in sec-butanol, 303.2 K): 0.00585; solubility (mole fraction) (in sec-butanol, 308 K): 0.00706; solubility (mole fraction) (in sec-butanol, 313 K): 0.0091; solubility (mole fraction) (in sec-butanol, 318 K): 0.0117; solubility (mole fraction) (in sec-butanol, 323 K): 0.015; solubility (mole fraction) (in water, 278 K): 0.0074; solubility (mole fraction) (in water, 283 K): 0.00829; solubility (mole fraction) (in water, 288 K): 0.0102; solubility (mole fraction) (in water, 293 K): 0.0127; solubility (mole fraction) (in water, 298 K): 0.0158; solubility (mole fraction) (in water, 303.1 K): 0.0192; solubility (mole fraction) (in water, 308.2 K): 0.0241; solubility (mole fraction) (in water, 313 K): 0.0316; solubility (mole fraction) (in water, 318 K): 0.0421; solubility (mole fraction) (in water, 323 K): 0.0554
Cc1ccc(S(=O)(=O)[N-]Cl)cc1.[Na+]	0.02	0.0221	0.0244	0.0268	0.0299	0.034	0.0388	0.0441	0.0499	0.0564	0.00503	0.00636	0.00776	0.00932	0.0109	0.013	0.0156	0.0191	0.0235	0.0291	solubility (mole fraction) (in sec-butanol, 278 K): 0.00101; solubility (mole fraction) (in sec-butanol, 283 K): 0.00135; solubility (mole fraction) (in sec-butanol, 288 K): 0.00201; solubility (mole fraction) (in sec-butanol, 293 K): 0.00322; solubility (mole fraction) (in sec-butanol, 298.4 K): 0.00464; solubility (mole fraction) (in sec-butanol, 303.2 K): 0.00595; solubility (mole fraction) (in sec-butanol, 308 K): 0.00723; solubility (mole fraction) (in sec-butanol, 313 K): 0.00881; solubility (mole fraction) (in sec-butanol, 318 K): 0.0114; solubility (mole fraction) (in sec-butanol, 323 K): 0.0141; solubility (mole fraction) (in water, 278 K): 0.00684; solubility (mole fraction) (in water, 283 K): 0.008; solubility (mole fraction) (in water, 288 K): 0.00955; solubility (mole fraction) (in water, 293 K): 0.0114; solubility (mole fraction) (in water, 298 K): 0.0138; solubility (mole fraction) (in water, 303.1 K): 0.0171; solubility (mole fraction) (in water, 308.2 K): 0.0218; solubility (mole fraction) (in water, 313 K): 0.0284; solubility (mole fraction) (in water, 318 K): 0.037; solubility (mole fraction) (in water, 323 K): 0.0477
